Laboratory results published in US8158636B2, “Compounds and methods for kinase modulation, and indications therefor” (Plexxikon Inc., priority 2008, dated 2012).

Key:
Type in all cases: biochemical
Kdr = Kdr (Homo sapiens, UniProt P35968); test: Kinase activity assay, Kdr; conditions: Table 1i; read-out: activity toward kinase Kdr, IC50
From the text: (§1) Assays for the activity of kinases, including, but not limited to, Fms, Kit, B-Raf, B-Raf V600E, c-Raf-1, and TrkA are known in the art, for example as described in US Patent Publication Number US20070032519 and U.S. patent application Ser. No. 11/473,347 (see also, PCT publication WO2007002433), the disclosures of which are hereby incorporated by reference with respect to such assays.

TrkA = TrkA (Homo sapiens, UniProt P04629); test: Kinase activity assay, TrkA; conditions: Table 1m; read-out: activity toward kinase TrkA, IC50
From the text: as §1

Src = Src (Homo sapiens, UniProt P12931); test: Kinase activity assay, Src; conditions: Table 1k; read-out: activity toward kinase Src, IC50
From the text: as §1

Flt-3 = molecular target: T1, Flt-3 (Homo sapiens, UniProt P36888); test: Kinase activity assay, Flt-3; conditions: Table 1g; read-out: activity toward kinase Flt-3, IC50
T1 sequence (P36888 27-993): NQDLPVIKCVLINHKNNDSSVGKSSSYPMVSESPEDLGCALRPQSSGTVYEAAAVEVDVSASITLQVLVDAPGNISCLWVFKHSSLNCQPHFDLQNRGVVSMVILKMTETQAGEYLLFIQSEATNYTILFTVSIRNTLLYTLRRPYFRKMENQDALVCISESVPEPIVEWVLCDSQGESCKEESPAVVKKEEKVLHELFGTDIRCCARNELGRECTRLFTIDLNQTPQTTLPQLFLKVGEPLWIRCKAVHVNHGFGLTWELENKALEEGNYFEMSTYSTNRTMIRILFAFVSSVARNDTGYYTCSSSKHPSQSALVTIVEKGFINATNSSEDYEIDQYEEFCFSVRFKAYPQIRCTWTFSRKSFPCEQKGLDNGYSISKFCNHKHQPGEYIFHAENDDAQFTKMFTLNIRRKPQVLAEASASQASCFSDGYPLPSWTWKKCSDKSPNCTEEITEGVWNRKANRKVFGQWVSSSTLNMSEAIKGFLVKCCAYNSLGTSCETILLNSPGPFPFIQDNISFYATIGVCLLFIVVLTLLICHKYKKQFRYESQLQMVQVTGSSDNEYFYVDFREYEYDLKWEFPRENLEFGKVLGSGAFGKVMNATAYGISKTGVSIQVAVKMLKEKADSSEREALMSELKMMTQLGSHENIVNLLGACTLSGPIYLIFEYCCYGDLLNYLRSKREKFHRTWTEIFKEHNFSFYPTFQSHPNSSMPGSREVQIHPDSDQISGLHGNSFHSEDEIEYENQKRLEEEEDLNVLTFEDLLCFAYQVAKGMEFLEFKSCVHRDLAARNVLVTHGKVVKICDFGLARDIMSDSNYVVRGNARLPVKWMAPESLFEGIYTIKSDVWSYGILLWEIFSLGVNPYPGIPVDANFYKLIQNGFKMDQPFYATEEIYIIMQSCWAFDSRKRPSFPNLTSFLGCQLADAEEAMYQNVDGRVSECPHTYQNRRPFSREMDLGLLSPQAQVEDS
From the text: as §1

Fms = Fms (Homo sapiens, UniProt P07333); test: Kinase activity assay, Fms; conditions: Table 1h; read-out: activity toward kinase Fms, IC50
From the text: as §1

Kit = Kit (Homo sapiens, UniProt P10721); test: Kinase activity assay, Kit; conditions: Table 1j; read-out: activity toward kinase Kit, IC50
From the text: as §1

A-Raf = molecular target: T2, A-Raf (Homo sapiens, UniProt P10398); test: Kinase activity assay, A-Raf; conditions: Table 1a; read-out: activity toward kinase A-Raf, IC50
T2 sequence (P10398 1-606): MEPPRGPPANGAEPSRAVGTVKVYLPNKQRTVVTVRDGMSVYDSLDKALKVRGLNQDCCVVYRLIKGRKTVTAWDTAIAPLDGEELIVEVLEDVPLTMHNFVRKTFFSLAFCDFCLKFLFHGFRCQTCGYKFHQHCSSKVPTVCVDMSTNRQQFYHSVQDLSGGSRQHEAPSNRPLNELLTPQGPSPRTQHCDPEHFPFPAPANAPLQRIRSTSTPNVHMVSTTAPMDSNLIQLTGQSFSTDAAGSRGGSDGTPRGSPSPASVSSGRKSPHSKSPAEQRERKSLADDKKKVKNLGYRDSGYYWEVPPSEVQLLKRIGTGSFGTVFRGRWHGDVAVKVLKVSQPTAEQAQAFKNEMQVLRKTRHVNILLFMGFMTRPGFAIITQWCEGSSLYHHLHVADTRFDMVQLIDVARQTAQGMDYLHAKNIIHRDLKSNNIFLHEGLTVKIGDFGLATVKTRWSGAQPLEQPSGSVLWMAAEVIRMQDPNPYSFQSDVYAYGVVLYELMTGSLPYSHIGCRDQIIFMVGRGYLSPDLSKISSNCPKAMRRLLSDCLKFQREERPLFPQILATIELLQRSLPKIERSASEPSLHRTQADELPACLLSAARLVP
From the text: as §1

B-Raf V600E = B-Raf V600E (Homo sapiens, UniProt P15056, V600E); test: Kinase activity assay, B-Raf V600E; conditions: Table 1c; read-out: activity toward kinase B-Raf V600E, IC50
From the text: as §1

B-Raf = B-Raf (Homo sapiens, UniProt P15056); test: Kinase activity assay, B-Raf; conditions: Table 1b; read-out: activity toward kinase B-Raf, IC50
From the text: as §1

C-Raf = C-Raf (Homo sapiens, UniProt P04049); test: Kinase activity assay, C-Raf; conditions: Table 1d; read-out: activity toward kinase C-Raf, IC50
From the text: as §1

Btk = Btk (Homo sapiens, UniProt Q06187); test: Kinase activity assay, Btk; conditions: Table 1e; read-out: activity toward kinase Btk, IC50
From the text: as §1

Chain of Kdr (P35968 20-1356): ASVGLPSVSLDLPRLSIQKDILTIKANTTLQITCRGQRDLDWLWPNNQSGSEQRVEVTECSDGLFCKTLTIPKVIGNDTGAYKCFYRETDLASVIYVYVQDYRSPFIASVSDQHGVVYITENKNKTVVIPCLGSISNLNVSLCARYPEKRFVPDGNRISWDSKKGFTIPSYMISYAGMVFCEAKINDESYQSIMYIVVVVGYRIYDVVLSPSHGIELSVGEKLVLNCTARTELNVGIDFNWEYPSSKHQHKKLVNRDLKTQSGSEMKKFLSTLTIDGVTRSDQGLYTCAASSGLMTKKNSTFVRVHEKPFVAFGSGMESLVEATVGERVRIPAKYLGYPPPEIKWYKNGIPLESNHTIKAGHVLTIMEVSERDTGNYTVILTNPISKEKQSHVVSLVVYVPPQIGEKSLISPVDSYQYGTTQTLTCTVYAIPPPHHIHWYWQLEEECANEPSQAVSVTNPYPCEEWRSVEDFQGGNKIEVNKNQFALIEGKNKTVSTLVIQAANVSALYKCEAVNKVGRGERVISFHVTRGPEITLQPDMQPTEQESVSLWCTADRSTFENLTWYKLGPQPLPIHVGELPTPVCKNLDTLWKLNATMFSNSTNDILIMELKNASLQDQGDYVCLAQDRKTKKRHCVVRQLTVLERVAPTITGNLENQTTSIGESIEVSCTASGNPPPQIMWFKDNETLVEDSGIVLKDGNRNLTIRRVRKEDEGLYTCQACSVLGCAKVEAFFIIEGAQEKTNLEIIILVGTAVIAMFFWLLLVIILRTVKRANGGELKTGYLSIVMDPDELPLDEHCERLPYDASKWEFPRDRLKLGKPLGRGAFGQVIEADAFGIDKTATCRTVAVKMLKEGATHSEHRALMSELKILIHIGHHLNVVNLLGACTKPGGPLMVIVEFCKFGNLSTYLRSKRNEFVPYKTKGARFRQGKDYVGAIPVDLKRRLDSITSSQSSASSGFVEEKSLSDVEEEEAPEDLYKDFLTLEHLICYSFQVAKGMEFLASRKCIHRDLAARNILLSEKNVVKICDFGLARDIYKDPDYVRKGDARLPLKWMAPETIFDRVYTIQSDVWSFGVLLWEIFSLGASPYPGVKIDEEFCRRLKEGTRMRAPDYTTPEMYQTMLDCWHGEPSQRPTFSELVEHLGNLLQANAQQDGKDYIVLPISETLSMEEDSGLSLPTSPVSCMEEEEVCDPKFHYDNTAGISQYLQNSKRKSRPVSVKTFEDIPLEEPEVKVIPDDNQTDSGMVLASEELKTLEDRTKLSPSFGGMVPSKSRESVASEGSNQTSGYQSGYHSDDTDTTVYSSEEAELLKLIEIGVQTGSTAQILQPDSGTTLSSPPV
Chain of TrkA (P04629 33-796): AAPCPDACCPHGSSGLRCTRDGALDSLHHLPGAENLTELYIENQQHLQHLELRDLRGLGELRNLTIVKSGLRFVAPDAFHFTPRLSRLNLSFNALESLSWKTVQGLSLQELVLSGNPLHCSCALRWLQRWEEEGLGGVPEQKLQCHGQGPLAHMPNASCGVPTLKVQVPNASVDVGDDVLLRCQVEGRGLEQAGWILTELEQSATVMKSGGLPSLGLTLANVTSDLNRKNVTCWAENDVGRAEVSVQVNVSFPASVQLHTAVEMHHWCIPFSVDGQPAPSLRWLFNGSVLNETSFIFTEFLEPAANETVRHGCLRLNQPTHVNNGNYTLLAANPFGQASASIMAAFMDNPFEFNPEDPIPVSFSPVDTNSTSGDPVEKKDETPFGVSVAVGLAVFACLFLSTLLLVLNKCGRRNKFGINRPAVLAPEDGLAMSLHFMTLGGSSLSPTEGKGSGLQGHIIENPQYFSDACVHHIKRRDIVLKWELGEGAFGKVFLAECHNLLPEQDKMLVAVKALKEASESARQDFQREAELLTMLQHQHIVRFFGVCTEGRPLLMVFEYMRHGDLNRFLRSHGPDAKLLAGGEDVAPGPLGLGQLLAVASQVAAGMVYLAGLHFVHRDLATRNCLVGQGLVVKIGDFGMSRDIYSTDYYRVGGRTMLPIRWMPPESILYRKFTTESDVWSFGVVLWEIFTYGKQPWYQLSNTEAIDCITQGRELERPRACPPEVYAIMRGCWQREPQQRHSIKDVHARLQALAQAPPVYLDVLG
Chain of B-Raf V600E (P15056 whole entry V600E): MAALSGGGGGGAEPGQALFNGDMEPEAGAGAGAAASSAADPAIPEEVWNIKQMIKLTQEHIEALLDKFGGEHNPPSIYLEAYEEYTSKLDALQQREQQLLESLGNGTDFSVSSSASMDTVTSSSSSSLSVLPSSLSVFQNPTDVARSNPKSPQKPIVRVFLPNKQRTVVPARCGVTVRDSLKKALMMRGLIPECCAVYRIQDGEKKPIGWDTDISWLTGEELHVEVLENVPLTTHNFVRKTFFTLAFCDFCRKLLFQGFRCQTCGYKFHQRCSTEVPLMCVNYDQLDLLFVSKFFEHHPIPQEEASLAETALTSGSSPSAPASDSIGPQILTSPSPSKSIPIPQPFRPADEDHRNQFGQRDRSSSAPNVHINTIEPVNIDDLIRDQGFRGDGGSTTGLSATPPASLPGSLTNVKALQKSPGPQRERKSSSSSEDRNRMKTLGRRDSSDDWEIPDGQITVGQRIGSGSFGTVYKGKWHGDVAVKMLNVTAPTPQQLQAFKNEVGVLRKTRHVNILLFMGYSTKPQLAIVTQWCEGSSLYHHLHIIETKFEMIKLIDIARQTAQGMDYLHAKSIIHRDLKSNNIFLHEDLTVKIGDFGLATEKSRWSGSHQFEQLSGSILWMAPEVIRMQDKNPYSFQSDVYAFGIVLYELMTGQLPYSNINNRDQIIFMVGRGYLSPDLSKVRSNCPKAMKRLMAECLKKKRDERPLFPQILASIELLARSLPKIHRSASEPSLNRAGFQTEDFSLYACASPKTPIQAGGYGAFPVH
Chain of Fms (P07333 20-972): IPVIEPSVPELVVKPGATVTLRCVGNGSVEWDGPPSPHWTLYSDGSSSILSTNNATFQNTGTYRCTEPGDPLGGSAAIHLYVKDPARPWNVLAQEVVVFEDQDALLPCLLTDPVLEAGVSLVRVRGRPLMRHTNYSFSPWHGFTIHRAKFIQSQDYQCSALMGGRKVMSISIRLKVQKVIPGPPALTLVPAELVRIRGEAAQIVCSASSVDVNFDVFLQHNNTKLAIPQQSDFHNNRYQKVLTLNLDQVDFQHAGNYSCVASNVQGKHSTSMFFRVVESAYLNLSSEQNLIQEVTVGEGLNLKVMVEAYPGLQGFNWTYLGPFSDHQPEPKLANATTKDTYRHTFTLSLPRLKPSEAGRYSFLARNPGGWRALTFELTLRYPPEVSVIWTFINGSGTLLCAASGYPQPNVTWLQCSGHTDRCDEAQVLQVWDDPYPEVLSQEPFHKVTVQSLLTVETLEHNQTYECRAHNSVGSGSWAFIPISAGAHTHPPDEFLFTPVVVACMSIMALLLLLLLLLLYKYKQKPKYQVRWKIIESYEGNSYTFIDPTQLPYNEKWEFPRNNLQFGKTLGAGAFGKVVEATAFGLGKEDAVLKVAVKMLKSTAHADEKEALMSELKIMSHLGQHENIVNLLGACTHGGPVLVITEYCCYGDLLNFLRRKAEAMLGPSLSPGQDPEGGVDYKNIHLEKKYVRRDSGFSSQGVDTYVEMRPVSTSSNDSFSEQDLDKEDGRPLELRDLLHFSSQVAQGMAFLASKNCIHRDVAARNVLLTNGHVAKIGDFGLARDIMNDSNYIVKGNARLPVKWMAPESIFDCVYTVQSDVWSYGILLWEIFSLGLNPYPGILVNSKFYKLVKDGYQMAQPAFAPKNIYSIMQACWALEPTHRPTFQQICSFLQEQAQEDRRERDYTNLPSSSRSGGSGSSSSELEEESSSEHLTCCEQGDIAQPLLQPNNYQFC
Chain of C-Raf (P04049 whole entry): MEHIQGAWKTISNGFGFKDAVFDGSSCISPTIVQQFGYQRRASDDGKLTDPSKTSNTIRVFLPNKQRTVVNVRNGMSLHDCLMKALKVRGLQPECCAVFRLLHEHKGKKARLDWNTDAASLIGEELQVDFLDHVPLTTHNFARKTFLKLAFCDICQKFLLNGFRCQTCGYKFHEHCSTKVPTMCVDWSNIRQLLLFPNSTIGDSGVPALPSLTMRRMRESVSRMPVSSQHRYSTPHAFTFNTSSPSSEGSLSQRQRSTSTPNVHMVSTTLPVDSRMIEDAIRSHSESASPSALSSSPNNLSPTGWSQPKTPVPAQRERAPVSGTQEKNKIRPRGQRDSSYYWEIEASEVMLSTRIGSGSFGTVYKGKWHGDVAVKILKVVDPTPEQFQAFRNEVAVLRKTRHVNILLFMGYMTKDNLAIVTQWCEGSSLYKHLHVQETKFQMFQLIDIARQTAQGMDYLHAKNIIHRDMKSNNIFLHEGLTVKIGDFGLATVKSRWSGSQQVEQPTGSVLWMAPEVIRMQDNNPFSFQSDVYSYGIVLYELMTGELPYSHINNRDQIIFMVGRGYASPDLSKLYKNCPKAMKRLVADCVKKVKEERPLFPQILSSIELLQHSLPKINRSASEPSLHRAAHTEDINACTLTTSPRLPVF
Chain of Src (P12931 whole entry): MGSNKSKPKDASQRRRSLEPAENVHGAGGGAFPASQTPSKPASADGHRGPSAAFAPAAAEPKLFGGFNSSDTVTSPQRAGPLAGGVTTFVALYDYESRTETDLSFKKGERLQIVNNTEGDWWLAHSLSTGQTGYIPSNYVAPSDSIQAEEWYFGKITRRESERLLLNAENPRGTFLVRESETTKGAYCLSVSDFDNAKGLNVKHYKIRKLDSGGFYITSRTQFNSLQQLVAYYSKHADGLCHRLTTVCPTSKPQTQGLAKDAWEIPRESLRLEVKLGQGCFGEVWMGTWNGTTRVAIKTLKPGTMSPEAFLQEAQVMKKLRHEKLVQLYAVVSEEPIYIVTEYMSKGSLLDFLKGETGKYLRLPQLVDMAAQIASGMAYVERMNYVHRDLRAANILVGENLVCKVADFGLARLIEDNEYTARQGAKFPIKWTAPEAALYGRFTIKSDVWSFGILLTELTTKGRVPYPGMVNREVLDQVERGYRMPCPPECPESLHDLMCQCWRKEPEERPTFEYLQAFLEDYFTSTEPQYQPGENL
Chain of B-Raf (P15056 whole entry): as the sequence (P15056 whole entry V600E) above, with E600V counted along it

| IC50 (Kdr) | IC50 (TrkA) | IC50 (Src) | IC50 (Flt-3) | IC50 (Fms) | IC50 (Kit) | IC50 (A-Raf) | IC50 (B-Raf V600E) | IC50 (B-Raf) | IC50 (C-Raf) | IC50 (Btk) | SMILES |
| --- | --- | --- | --- | --- | --- | --- | --- | --- | --- | --- | --- |
| ≤ 10 µM | ≤ 10 µM | ≤ 10 µM | ≤ 10 µM | ≤ 10 µM | ≤ 10 µM | – | – | – | – | – | Fc1nc(NCc2ccccc2Cl)ccc1Cc1c[nH]c2ncncc12 [P-0005, (2-Chloro-benzyl)-[6-fluoro-5-(7H-pyrrolo[2,3-d]pyrimidin-5-ylmethyl)-pyridin-2-yl]-amine] |
| ≤ 10 µM | ≤ 10 µM | – | ≤ 10 µM | ≤ 10 µM | ≤ 10 µM | ≤ 10 µM | ≤ 10 µM | – | – | – | Fc1nc(NCc2ccc(C(F)(F)F)nc2)ccc1Cc1c[nH]c2ncncc12 [P-0007, [6-Fluoro-5-(7H-pyrrolo[2,3-d]pyrimidin-5-ylmethyl)-pyridin-2-yl]-(6-trifluoromethyl-pyridin-3-ylmethyl)-amine] |
| ≤ 10 µM | ≤ 10 µM | – | ≤ 10 µM | ≤ 10 µM | ≤ 10 µM | ≤ 10 µM | – | – | – | – | COc1ncc(F)cc1CNc1ccc(Cc2c[nH]c3ncncc23)c(F)n1 [P-0011, (5-Fluoro-2-methoxy-pyridin-3-ylmethyl)-[6-fluoro-5-(7H-pyrrolo[2,3-d]pyrimidin-5-ylmethyl)-pyridin-2-yl]-amine] |
| ≤ 10 µM | – | – | ≤ 10 µM | ≤ 10 µM | ≤ 10 µM | ≤ 10 µM | ≤ 10 µM | ≤ 10 µM | – | – | COc1ccc(CNc2ccc(Cc3c[nH]c4ncnc(OC)c34)cn2)cn1 [P-0013, (6-Methoxy-pyridin-3-ylmethyl)-[5-(4-methoxy-7H-pyrrolo[2,3-d]pyrimidin-5-ylmethyl)-pyridin-2-yl]-amine] |
| ≤ 10 µM | – | ≤ 10 µM | ≤ 10 µM | ≤ 10 µM | ≤ 10 µM | ≤ 10 µM | ≤ 10 µM | – | – | – | COc1ncnc2[nH]cc(Cc3ccc(NCc4ccccc4Cl)nc3)c12 [P-0014, (2-Chloro-benzyl)-[5-(4-methoxy-7H-pyrrolo[2,3-d]pyrimidin-5-ylmethyl)-pyridin-2-yl]-amine] |
| ≤ 10 µM | – | ≤ 10 µM | – | ≤ 10 µM | – | – | – | – | – | – | CC(C)c1ncc(CNc2ccc(Cc3c[nH]c4ncncc34)c(F)n2)cn1 [P-0079, [6-Fluoro-5-(7H-pyrrolo[2,3-d]pyrimidin-5-ylmethyl)-pyridin-2-yl]-(2-isopropyl-pyrimidin-5-ylmethyl)-amine] |
| ≤ 10 µM | – | ≤ 10 µM | – | ≤ 10 µM | ≤ 10 µM | – | ≤ 10 µM | ≤ 10 µM | ≤ 10 µM | – | Fc1nc(NCc2cccnc2OC2CCCCC2)ccc1Cc1c[nH]c2ncncc12 [P-0088, (2-Cyclohexyloxy-pyridin-3-ylmethyl)-[6-fluoro-5-(7H-pyrrolo[2,3-d]pyrimidin-5-ylmethyl)-pyridin-2-yl]-amine] |
| ≤ 10 µM | – | ≤ 10 µM | – | ≤ 10 µM | ≤ 10 µM | – | ≤ 10 µM | – | – | – | Fc1nc(NCc2ccc(N3CCCC3)cn2)ccc1Cc1c[nH]c2ncncc12 [P-0089, [6-Fluoro-5-(7H-pyrrolo[2,3-d]pyrimidin-5-ylmethyl)-pyridin-2-yl]-(5-pyrrolidin-1-yl-pyridin-2-ylmethyl)-amine] |
| – | ≤ 10 µM | ≤ 10 µM | – | ≤ 10 µM | ≤ 10 µM | – | – | – | – | – | COc1ncnc2[nH]cc(Cc3ccc(NCc4ccccc4Cl)nc3F)c12 [P-0090, (2-Chloro-benzyl)-[6-fluoro-5-(4-methoxy-7H-pyrrolo[2,3-d]pyrimidin-5-ylmethyl)-pyridin-2-yl]-amine] |
| – | – | ≤ 10 µM | – | ≤ 10 µM | ≤ 10 µM | – | – | – | ≤ 10 µM | – | COc1ncc(CNc2ncc(Cc3c[nH]c4ncnc(OC)c34)cn2)cc1F [P-0092, (5-Fluoro-6-methoxy-pyridin-3-ylmethyl)-[5-(4-methoxy-7H-pyrrolo[2,3-d]pyrimidin-5-ylmethyl)-pyrimidin-2-yl]-amine] |
| – | ≤ 10 µM | ≤ 10 µM | – | ≤ 10 µM | ≤ 10 µM | – | ≤ 10 µM | – | – | – | COc1ncnc2[nH]cc(Cc3ccc(NCc4cnccc4C(F)(F)F)nc3F)c12 [P-0095, [6-Fluoro-5-(4-methoxy-7H-pyrrolo[2,3-d]pyrimidin-5-ylmethyl)-pyridin-2-yl]-(4-trifluoromethyl-pyridin-3-ylmethyl)-amine] |
| – | ≤ 10 µM | ≤ 10 µM | – | ≤ 10 µM | ≤ 10 µM | – | – | – | – | – | COc1ncccc1CNc1ccc(Cc2c[nH]c3ncnc(OC)c23)c(F)n1 [P-0097, [6-Fluoro-5-(4-methoxy-7H-pyrrolo[2,3-d]pyrimidin-5-ylmethyl)-pyridin-2-yl]-(2-methoxy-pyridin-3-ylmethyl)-amine] |
| – | ≤ 10 µM | – | – | ≤ 10 µM | ≤ 10 µM | – | – | – | – | ≤ 10 µM | COc1ncnc2[nH]cc(Cc3cnc(NCc4cncc(F)c4)nc3)c12 [P-0098, (5-Fluoro-pyridin-3-ylmethyl)-[5-(4-methoxy-7H-pyrrolo[2,3-d]pyrimidin-5-ylmethyl)-pyrimidin-2-yl]-amine] |
| ≤ 10 µM | ≤ 10 µM | – | – | ≤ 10 µM | ≤ 10 µM | – | ≤ 10 µM | ≤ 10 µM | ≤ 10 µM | – | COc1ncnc2[nH]cc(Cc3ccc(NCc4ccc(C(F)(F)F)nc4)nc3)c12 [P-0100, [5-(4-Methoxy-7H-pyrrolo[2,3-d]pyrimidin-5-ylmethyl)-pyridin-2-yl]-(6-trifluoromethyl-pyridin-3-ylmethyl)-amine] |
| ≤ 10 µM | ≤ 10 µM | – | – | ≤ 10 µM | ≤ 10 µM | – | ≤ 10 µM | ≤ 10 µM | ≤ 10 µM | – | COc1ncnc2[nH]cc(Cc3cnc(NCc4ccc(C(F)(F)F)nc4)nc3)c12 [P-0102, [5-(4-Methoxy-7H-pyrrolo[2,3-d]pyrimidin-5-ylmethyl)-pyrimidin-2-yl]-(6-trifluoromethyl-pyridin-3-ylmethyl)-amine] |
| ≤ 10 µM | ≤ 10 µM | – | – | ≤ 10 µM | ≤ 10 µM | – | ≤ 10 µM | ≤ 10 µM | ≤ 10 µM | – | COc1ncnc2[nH]cc(Cc3cnc(NCc4ccc(C(F)(F)F)nc4)c(F)c3)c12 [P-0103, [3-Fluoro-5-(4-methoxy-7H-pyrrolo[2,3-d]pyrimidin-5-ylmethyl)-pyridin-2-yl]-(6-trifluoromethyl-pyridin-3-ylmethyl)-amine] |
